Assay results as given in patent US10174013B2, “Benzimidazole derivatives as kinase inhibitors” (SELVITA S.A., priority 2012, dated 2019).
Like-named read-outs stand apart in the source and are kept apart here. One block for each compound: values may come before it.

Legend:
SW-480 cells = test: Growth inhibition, MTS assay, SW-480; type: cell-based, Human; settings: 72 hours, MTS cell viability; read-out: SW-480 ED50
MOLM13 cells = test: Growth inhibition, MTS assay, MOLM13; type: cell-based, Human; settings: 72 hours, MTS cell viability, read-out: MOLM 13 ED50
Excerpt: (§1) The following cell lines, were obtained and used in tests as outlined below: • Human myelomonocytic, biphenotypic leukemia MV4-11 cells (harboring a Flt3-ITD mutation); • Human Acute Myeloid Leukemia MOLM16 cells; • Human Acute Myeloid Leukemia MOLM13 cells (harboring a Flt3-ITD mutation); • Human Myeloid Leukemia KG-1 cells; • Human erythroleukemia HEL92 cells; • Human mantle cell lymphoma Jeko-1 cells; • Human hepatocellular carcinoma HepG2 cells; and • Human colon adenocarcinoma SW-480 cells.
(§2) The assays were carried out according to the following protocol, which is described as an example for the MV4-11 cells:
(§3) Ten thousand MV4-11 cells were inoculated into each well of a 96-well microplate (manufactured by Corning Corp.) using Iscove's MDM medium (culture medium) containing 10% fetal calf serum (FCS). The same day, a dimethyl sulfoxide (DMSO) solution of each test compound prepared in a concentration of 10 mmol/L was further diluted with DMSO to the desired concentrations (0.1, 0.5, 1, 2.5, 5 and 10 micromol/L), and the diluted solution was added to each well. The individual wells were further cultured in 5% carbon dioxide at 37° C. for 72 hours. […] Briefly, 10 μl MTS (3-(4,5-Dimethyl-2-thiazolyl)-5-(carboxymethoxyphenyl)-2-(4-sulfophenyl)-2H-tetrazolium was added to each well, and culturing was performed in 5% carbon dioxide at 37° C. for 2 hours. After this incubation and using a microplate spectrophotometer (Synergy 2 multi-mode microplate reader (BioTek)), the absorbance of each well was measured at 490 nm. The value for cells not incubated with a test compound was designated as 100%. By comparing these values with the absorbance difference obtained at the well in which each test compound was added, the cell viability (% viability) after treatment with the test compound was calculated.

Pim-2 = Pim-2 (Homo sapiens (Human), UniProt Q9P1W9); test: ADP-Glo Kinase Assay, Pim-2; type: biochemical; settings: 1 μM compound; for inhibition at 1 µM: read-out: Pim-2 % INH (1 μM)
Pim-2, sequence (Q9P1W9 whole entry): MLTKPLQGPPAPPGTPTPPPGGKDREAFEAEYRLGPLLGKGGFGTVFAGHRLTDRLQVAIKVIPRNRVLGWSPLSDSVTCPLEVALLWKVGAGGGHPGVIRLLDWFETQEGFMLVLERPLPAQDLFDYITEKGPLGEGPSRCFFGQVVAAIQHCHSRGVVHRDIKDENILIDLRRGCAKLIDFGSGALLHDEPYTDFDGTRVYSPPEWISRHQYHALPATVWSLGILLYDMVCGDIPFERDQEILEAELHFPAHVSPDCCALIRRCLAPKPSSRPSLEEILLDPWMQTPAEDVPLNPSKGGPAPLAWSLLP
Method in brief: (§4)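 Buffer was MOPS 5 mM (pH 7.5) with MgCl2, EDTA and DTT; ATP set at apparent Km per kinase. Compounds were diluted in assay buffer to 1000 nM. Kinase-generated ADP was converted to luciferase signal and normalised to percent inhibition.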

MOLM16 cells = test: Growth inhibition, MTS assay, MOLM16; type: cell-based, Human; settings: MTS cell viability, read-out: MOLM 16 ED50
HEL92 cells = test: Growth inhibition, MTS assay, HEL92; type: cell-based, Human; settings: MTS cell viability, read-out: HEL92 ED50
DYRK1 = DYRK1 (Homo sapiens (Human), UniProt Q13627); test: ADP-Glo Kinase Assay, DYRK1; type: biochemical; settings: 1 μM compound; for inhibition at 1 µM: read-out: DYRK1A % INH (1 μM)
Method in brief: as §4

Pim-3 = Pim-3 (Homo sapiens (Human), UniProt Q86V86); test: ADP-Glo Kinase Assay, Pim-3; type: biochemical; settings: 1 μM compound; for inhibition at 1 µM: read-out: Pim-3 % INH (1 μM)
Method in brief: as §4

CDK2/E = CDK2/E (Homo sapiens (Human), UniProt P24941); test: ADP-Glo Kinase Assay, CDK2/E; type: biochemical; settings: 1 μM compound; for inhibition at 1 µM: read-out: CDK2/E % INH (1 μM)
Method in brief: as §4

Jeko-1 cells = test: Growth inhibition, MTS assay, Jeko-1; type: cell-based, Human; settings: 72 hours, MTS cell viability, read-out: Jeko-1 ED50
KG-1 cells = test: Growth inhibition, MTS assay, KG-1; type: cell-based, Human; settings: 72 hours, MTS cell viability
Excerpt: as §1, §2, §3

Pim-1 = Pim-1 (Homo sapiens (Human), UniProt P11309); test: ADP-Glo Kinase Assay, Pim-1; type: biochemical; settings: 1 μM compound; for inhibition at 1 µM: read-out: Pim-1 % INH (1 μM)
Pim-1, sequence (P11309 whole entry): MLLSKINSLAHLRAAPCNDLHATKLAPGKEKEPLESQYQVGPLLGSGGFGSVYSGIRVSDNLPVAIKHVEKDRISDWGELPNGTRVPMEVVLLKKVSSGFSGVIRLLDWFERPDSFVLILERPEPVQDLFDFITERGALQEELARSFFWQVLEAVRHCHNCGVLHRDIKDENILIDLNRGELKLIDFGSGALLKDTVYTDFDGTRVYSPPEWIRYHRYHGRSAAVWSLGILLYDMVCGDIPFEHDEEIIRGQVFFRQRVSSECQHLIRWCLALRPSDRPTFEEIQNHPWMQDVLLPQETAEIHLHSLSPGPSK
Method in brief: as §4

FLT3wt = FLT3wt (Homo sapiens (Human), UniProt P36888); test: ADP-Glo Kinase Assay, Flt3 wt; type: biochemical; settings: 1 μM compound; for inhibition at 1 µM: read-out: Flt3wt % INH (1 μM)
FLT3wt, sequence (P36888 27-993): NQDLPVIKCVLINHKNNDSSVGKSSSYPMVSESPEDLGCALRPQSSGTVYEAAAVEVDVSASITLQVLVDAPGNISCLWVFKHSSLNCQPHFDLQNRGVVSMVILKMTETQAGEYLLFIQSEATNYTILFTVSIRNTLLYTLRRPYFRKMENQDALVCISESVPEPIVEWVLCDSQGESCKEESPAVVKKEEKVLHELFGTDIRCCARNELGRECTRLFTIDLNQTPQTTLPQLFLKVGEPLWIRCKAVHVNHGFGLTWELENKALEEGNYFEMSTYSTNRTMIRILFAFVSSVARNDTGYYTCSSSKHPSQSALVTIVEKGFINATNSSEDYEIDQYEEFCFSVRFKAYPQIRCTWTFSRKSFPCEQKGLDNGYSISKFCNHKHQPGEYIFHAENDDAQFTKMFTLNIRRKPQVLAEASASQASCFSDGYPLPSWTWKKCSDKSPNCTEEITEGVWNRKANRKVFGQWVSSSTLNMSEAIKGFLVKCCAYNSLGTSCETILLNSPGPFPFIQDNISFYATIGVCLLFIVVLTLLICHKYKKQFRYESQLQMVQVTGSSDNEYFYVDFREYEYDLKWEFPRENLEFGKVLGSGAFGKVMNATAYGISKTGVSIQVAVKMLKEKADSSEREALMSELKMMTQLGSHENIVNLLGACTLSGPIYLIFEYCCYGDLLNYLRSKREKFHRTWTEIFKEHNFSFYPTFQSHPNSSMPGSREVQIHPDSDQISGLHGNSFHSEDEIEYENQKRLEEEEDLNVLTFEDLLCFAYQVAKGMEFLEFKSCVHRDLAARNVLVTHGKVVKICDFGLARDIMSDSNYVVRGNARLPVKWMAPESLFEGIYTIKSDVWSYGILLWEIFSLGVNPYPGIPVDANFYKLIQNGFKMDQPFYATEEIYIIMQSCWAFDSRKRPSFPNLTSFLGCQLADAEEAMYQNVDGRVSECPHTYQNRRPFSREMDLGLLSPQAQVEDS
Method in brief: as §4

HepG2 cells = test: Growth inhibition, MTS assay, HepG2; type: cell-based, Human; settings: MTS cell viability, read-out: HepG2 ED50
MV4-11 xenograft = MV4-11 xenograft in immunocompromised mice; type: in vivo; settings: MV4-11 xenograft, oral
Excerpt: Several compounds of the present invention have been studied in a xenograft in mice, an in vivo tumor transplantation model used to investigate the factors involved in malignant transformation, invasion and metastasis, as well as to examine response to therapy. For the purpose of acceptance of donor leukemic cells (MV4-11 or MOLM16 cells), immunocompromised mice were used, namely particularly severely compromised immunodeficient mice (NOD/scid, SCID/beige). When tumors developed size of approx. 50-200 mm^3, the compounds as indicated below in Tables 3 and 3a were administered orally every day for 2-3 weeks, in once a day (QD) or twice a day (BID) schedule. During the course of the experiment, the mice were monitored and the following two parameters were measured: the tumor growth inhibition (TGI) factor as a measure of therapeutic efficacy and the body weight change (ΔBW) factor as a measure of possible compound toxicity. The results are depicted in Tables 3 and 3a.
Next, compound 26A was evaluated in a xenograft study of acute myeloid leukemia (MV-4-11), alone or in a combinational treatment with Cytarabine in vivo (Table 3b; FIG. 6). Compound 26A was tested in two doses (50 and 25 mg/kg) and administered twice a day (BID); Cytarabine was administered at dose of 50 mg/kg three times in a week (TIW). During 15 days of compound administration dose-dependent anti-cancer activity of compound 26A (administered alone) was shown. Tumor growth inhibition reached −82% and −77%, respectively.

FLT3-ITD = test: ADP-Glo Kinase Assay, Flt3 ITD; type: biochemical, Human; settings: 1 μM compound
Method: Compounds of the present invention were tested for their inhibitory activity against Pim-1, Pim-2, Pim-3, Flt3 wt, Flt3 ITD, CDK2/E and DYRK1. The testing of the compounds was carried out using the ADP-Glo™ Kinase Assay from Promega Corporation (Madison, Wis., USA).
The ADP-Glo™ Kinase Assay is a luminescent ADP detection assay to measure kinase activity by quantifying the amount of ADP produced during a kinase reaction. The kinase assay is performed in kinase assay buffer (5 mM MOPS, pH 7.5, 5 mM MgCl2, 0.4 mM EDTA, 1.5 mM DTT). Test samples initially dissolved in DMSO at 10 mM were diluted with the assay buffer to 1000 nM. A 30 μL volume/well of a mixture of substrates containing ATP (final ATP concentration in each kinase assay was equal to its apparent ATP Km).
The assay was performed in two steps: first, after the kinase reaction, an equal volume of ADP-Glo™ Reagent was added to terminate the kinase reaction and deplete the remaining ATP. Second, the Kinase Detection Reagent was added to simultaneously convert ADP to ATP and allowed the newly synthesized ATP to be measured using a luciferase/luciferin reaction. The luminescent signal generated was proportional to the ADP concentration produced and was correlated with kinase activity. A microplate spectrophotometer (Synergy 2 multi-mode microplate reader [BioTek]) was used for detecting the luminescence. The data was normalized and the percent of inhibition was obtained according to the following equation: […]

MV4-11 cells = test: Growth inhibition, MTS assay, MV4-11; type: cell-based, Human; settings: MTS cell viability, read-out: MV4-11 ED50
CYP3A4 = CYP3A4 (Homo sapiens (Human), UniProt P08684); test: Cytochrome P450 inhibition, fluorescence, CYP3A4; type: in vitro ADME; settings: recombinant CYP3A4, fluorescence detection; read-out: CYP inhibition (CYP 3A4 screening, IC50 class)
CYP3A4, sequence (P08684 whole entry, canonical isoform): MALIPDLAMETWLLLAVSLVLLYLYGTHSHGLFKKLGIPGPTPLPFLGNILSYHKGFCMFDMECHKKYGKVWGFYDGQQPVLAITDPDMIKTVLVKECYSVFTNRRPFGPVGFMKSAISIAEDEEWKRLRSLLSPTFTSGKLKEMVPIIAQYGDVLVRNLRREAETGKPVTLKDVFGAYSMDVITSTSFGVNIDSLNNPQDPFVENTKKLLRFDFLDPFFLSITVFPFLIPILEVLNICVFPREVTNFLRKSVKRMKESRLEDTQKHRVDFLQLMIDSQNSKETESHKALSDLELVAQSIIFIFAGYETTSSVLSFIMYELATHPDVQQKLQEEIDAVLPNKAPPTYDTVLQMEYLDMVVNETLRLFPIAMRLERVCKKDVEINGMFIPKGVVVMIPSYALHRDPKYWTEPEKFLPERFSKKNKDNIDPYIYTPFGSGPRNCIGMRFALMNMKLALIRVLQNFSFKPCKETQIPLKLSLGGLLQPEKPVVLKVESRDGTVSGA
Method: The assays for cytochrome P450 inhibition facilitate the identification of drug candidates with lower potential for drug-drug interactions (weak enzymes inhibitors). In vitro experiments were conducted to determine whether a drug inhibits a specific CYP enzyme. The experiments comprised the incubation of the drug with probe substrates for the CYP enzymes, wherein the following recombinant cytochrome P450 isoforms were employed: CYP1A2, CYP2C8, CYP2C9, CYP2C19, CYP2D6 and CYP3A4, together with various probe substrates enabling fluorescence detection. The protocol uses a single substrate concentration near the apparent Km and multiple compound concentrations.
The assay was performed in 96-well microtiter plates. The row designations were A through H and the column designations were 1 through 12. […] Each compound (see Table 6 for tested compounds) was added to the wells in column 1 and serially diluted to the wells in column 8. Wells 9 and 10 were control wells which contained no test compound (therefore no inhibition-full signal is detected.) The wells in columns 11 and 12 were blanks, where STOP solution was added prior to the addition of the enzyme/substrate mix to the NADPH regenerating system (the only signal present in these wells is background noise.) The assay was conducted in a final volume of 0.2 ml per well.
The stock solutions of the tested compounds were prepared in DMSO at 10 mM concentration. […] After mixing the compounds with solution containing NADPH-cofactors, the mixed plate was preincubated in a 37° C. incubator for at least 10 minutes; next, the fluorescence of compounds using recommended excitation/emission filters was measured in order to eliminate false results originating from autofluorescence of the compounds. In the following step, the enzyme/substrate mix was added to columns 1 through 10 and the plates were incubated at 37° C. for specific times depending on the CYP tested (incubation times ranged from 30 to 45 minutes). After adding STOP SOLUTION to all wells and respective enzyme/substrate mix to the wells in columns 11 and 12, the plate was scanned with a fluorescent plate scanner. The excitation/emission filters used for the specific assays are described in the GenTest Screening Kit instruction manual.

hERG potassium channel = hERG potassium channel (Homo sapiens (Human), UniProt Q12809); test: hERG automated patch clamp assay (QPatch HT)
hERG potassium channel, sequence (Q12809 whole entry): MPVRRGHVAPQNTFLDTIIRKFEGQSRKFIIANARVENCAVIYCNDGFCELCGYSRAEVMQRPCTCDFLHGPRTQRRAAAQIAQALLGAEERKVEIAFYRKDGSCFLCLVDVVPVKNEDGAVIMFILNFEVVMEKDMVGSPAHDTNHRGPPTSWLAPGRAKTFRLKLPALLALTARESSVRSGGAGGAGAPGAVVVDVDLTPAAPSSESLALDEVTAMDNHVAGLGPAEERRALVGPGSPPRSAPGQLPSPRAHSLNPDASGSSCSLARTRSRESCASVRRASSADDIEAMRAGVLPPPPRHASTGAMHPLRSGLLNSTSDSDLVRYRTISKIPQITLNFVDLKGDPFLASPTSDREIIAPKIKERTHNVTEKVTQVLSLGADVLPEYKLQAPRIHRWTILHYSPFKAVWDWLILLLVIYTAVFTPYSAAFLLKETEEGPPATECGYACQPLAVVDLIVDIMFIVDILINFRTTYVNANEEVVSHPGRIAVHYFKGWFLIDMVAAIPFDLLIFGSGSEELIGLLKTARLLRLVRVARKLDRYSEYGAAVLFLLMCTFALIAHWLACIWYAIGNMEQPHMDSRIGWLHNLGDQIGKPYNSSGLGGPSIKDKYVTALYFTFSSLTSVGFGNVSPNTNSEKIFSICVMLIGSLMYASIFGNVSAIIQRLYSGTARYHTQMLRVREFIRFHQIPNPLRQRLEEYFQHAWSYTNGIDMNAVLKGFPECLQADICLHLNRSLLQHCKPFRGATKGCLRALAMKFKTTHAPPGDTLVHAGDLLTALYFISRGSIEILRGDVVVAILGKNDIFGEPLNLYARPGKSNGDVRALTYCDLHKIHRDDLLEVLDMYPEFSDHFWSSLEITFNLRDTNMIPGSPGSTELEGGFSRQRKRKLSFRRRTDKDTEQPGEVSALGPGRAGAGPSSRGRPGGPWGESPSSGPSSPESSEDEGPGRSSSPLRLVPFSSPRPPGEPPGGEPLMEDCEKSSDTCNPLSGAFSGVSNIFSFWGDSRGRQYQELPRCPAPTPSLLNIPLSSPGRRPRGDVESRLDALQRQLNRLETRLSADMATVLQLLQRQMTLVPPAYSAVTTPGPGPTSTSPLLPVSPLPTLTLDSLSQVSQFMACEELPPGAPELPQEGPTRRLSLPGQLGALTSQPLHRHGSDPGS
Method in brief: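 Automated whole-cell patch clamp of hERG current in mammalian cells at room temperature. Compounds applied at 0.1, 1, 3, 10 and 30 μM, 3 min per concentration, n≥2 cells each.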

IC50 (SW-480 cells): 7000 nM
IC50 (MOLM13 cells): 1800 nM
Pim-2 % INH (1 μM) (Pim-2): 55%
IC50 (MOLM16 cells; 72 hours): 200 nM
DYRK1A % INH (1 μM) (DYRK1): 39%
Pim-3 % INH (1 μM) (Pim-3): >95%
CDK2/E % INH (1 μM) (CDK2/E): 6%
Pim-1 % INH (1 μM) (Pim-1): >95%
Flt3wt % INH (1 μM) (FLT3wt): 9%
IC50 (HepG2 cells; 72 hours): 2200 nM
Flt3ITD % INH (1 μM) (FLT3-ITD): 29%
IC50 (MV4-11 cells; 72 hours): 600 nM
Compound: CCn1c(N2CCC[C@H](N)C2)nc2c([N+](=O)[O-])c(Br)c(Br)cc21 [Example 1AH]
IC50 (HEL92 cells; 72 hours): 6000 nM
IC50 (Jeko-1 cells): 1900 nM
KG-1 ED50 (KG-1 cells): 650 nM
TGI (tumor growth inhibition) (MV4-11 xenograft; 150 mg/Kg QD): 74%
ΔBW (body weight change) (MV4-11 xenograft; 150 mg/Kg QD): 0.6%
TGI (tumor growth inhibition) (MV4-11 xenograft; doses as in Table 3): more than 70%

IC50 (MOLM13 cells; Homo sapiens, MOLM-13): 3900 nM
inhibition at 1 µM (Pim-2): 59%
IC50 (MOLM16 cells; Homo sapiens, MOLM16, 72 h): 100 nM
inhibition at 1 µM (DYRK1): 65%
inhibition at 1 µM (Pim-3): 91%
inhibition at 1 µM (CDK2/E): 28%
inhibition at 1 µM (Pim-1): > 95%
inhibition at 1 µM (FLT3wt): 18%
IC50 (HepG2 cells; Homo sapiens, HepG2, 72 h): 1200 nM
Flt3ITD % INH (1 μM) (FLT3-ITD): 50%
IC50 (MV4-11 cells; Homo sapiens, MV4-11, 72 h): 1000 nM
Compound: CCn1c(N2CC[C@H](N)C2)nc2c(C#N)c(Br)c(Br)cc21 [Example 1DR]
IC50 (HEL92 cells; Homo sapiens, 72 h): 6200 nM
IC50 (Jeko-1 cells; Homo sapiens, JeKo-1): 1300 nM
KG-1 ED50 (KG-1 cells): 140 nM

IC50 (CYP3A4): 3300 to 10000 nM
inhibition at 1 µM (Pim-2): 31%
inhibition at 1 µM (DYRK1): 16%
inhibition at 1 µM (Pim-3): 79%
inhibition at 1 µM (CDK2/E): < 5%
inhibition at 1 µM (Pim-1): > 95%
inhibition at 1 µM (FLT3wt): < 5%
IC50 (HepG2 cells; Homo sapiens, HepG2, 72 h): 4700 nM
Flt3ITD % INH (1 μM) (FLT3-ITD): 5%
IC50 (MV4-11 cells; Homo sapiens, MV4-11, 72 h): 2800 nM
Compound: CC(C)n1c(NCCOCCN)nc2c([N+](=O)[O-])c(Br)c(Br)cc21 [Example 22J, N-[2-(2-aminoethoxy)ethyl]-5,6-dibromo-4-nitro-1-(propan-2-yl)-1H-1,3-benzodiazol-2-amine]
IC50 (hERG potassium channel): 11900 nM
